Assay results taken from patent US11299487B2, “Compounds and compositions as modulators of TLR signaling” (Neuropore Therapies, Inc., priority 2019, dated 2022).

Tests used:
human TLR2 [1] = target: T1, human TLR2 (Homo sapiens, UniProt O60603); assay: HEK-Blue hTLR2 antagonism assay (SEAP reporter) with agonist Pam3CSK4 (TLR1/2 agonist); format: cell-based; conditions: Table A; HEK-Blue hTLR2 cells, ~3×EC50 Pam3CSK4, 18 h, SEAP OD 655 nm, 8-point dilutions
T1 construct: host or cells: HEK-Blue hTLR2 (HEK-293)
Protocol: (§1) Synthetic diacylated lipoprotein (Pam2CSK4, TLR2/6 agonist) and synthetic triacylated lipoprotein (Pam3CSK4, TLR1/2 agonist) were obtained from InvivoGen and were dissolved in endotoxin-free water to a concentration 1 mg/mL, vortexed until complete solubilization, and stored in aliquots at −20° C. Prior to addition to cells, an aliquot of the dissolved ligand was vortexed shortly and then was diluted in medium to 25 ng/mL Pam2CSK4 or 1000 ng/mL Pam3CSK4.
(§2) Test compounds were solubilized fresh to 10-20 mM stocks in DMSO and sonicated for 5-10 minutes in a water bath sonicator. Serial dilutions were prepared in DMSO, and then diluted in medium. The final concentration of DMSO used in the assay was 1%.
(§3) HEK-Blue hTLR2 reporter cells (InvivoGen) are HEK-293 cells stably expressing both the human TLR2 gene and a secreted embryonic alkaline phosphatase (SEAP) reporter construct downstream of NFκB promotor sites. HEK-Blue hTLR2 reporters were cultured according to manufacturer's protocol using Dulbecco's Modified Eagle Medium (DMEM; Gibco) containing 1× GlutaMax (Gibco), 10% heat-inactivated Fetal Bovine Serum (Gibco), Pen-Strep (50 U/mL penicillin, 50 μg/mL streptomycin, Gibco), 100 μg/mL Normocin (InvivoGen), and the selective antibiotic, 1×HEK-Blue Selection (InvivoGen). Quanti-Blue reagent (InvivoGen) for detection and quantification of secreted alkaline phosphatase was dissolved in 100 mL of endotoxin-free water, warmed to 37° C. for 30 minutes and then filtered using a 0.2 μm membrane.
(§4) On day 1, 50 μL of each test compound dilution in duplicates or a vehicle control was added to each well of a 96-well plate followed by addition of 150 μL of HEK-Blue hTLR2 cell suspension (1×10^5 cells/well) and incubated at 37° C./5% CO2 for 2 h. Next, 50 μL of an approximate 3×EC50 concentration of each agonist (Pam2CSK4 or Pam3CSK4) was added to the wells containing test compounds or the vehicle control. The plates were then incubated at 37° C./5% CO2 for 18 h. For each assay run, non-treated HEK-Blue hTLR2 cells were treated with serial dilutions of agonists to determine EC50 values for the respective run.
(§5) On day 2, secreted alkaline phosphatase (SEAP) activity was detected in cell culture supernatants. In brief, 20 μL was collected from each well and transferred to a 96-well plate. Next, 200 μL of Quanti-Blue detection reagent was added to each well. Plates were incubated at room temperature for 15 min. and SEAP activity was assessed by spectrophotometer OD reading at 655 nm. […] IC50 values were calculated based on 8-point dilutions for each compound.

human TLR2 [2] = target: T1, human TLR2; assay: HEK-Blue hTLR2 antagonism assay (SEAP reporter) with agonist Pam2CSK4 (TLR2/6 agonist); format: cell-based; conditions: Table A; HEK-Blue hTLR2 cells, ~3×EC50 Pam2CSK4, 18 h, SEAP OD 655 nm, 8-point dilutions
Protocol: as §1, §2, §3, §4, §5

T1 sequence (O60603 21-784): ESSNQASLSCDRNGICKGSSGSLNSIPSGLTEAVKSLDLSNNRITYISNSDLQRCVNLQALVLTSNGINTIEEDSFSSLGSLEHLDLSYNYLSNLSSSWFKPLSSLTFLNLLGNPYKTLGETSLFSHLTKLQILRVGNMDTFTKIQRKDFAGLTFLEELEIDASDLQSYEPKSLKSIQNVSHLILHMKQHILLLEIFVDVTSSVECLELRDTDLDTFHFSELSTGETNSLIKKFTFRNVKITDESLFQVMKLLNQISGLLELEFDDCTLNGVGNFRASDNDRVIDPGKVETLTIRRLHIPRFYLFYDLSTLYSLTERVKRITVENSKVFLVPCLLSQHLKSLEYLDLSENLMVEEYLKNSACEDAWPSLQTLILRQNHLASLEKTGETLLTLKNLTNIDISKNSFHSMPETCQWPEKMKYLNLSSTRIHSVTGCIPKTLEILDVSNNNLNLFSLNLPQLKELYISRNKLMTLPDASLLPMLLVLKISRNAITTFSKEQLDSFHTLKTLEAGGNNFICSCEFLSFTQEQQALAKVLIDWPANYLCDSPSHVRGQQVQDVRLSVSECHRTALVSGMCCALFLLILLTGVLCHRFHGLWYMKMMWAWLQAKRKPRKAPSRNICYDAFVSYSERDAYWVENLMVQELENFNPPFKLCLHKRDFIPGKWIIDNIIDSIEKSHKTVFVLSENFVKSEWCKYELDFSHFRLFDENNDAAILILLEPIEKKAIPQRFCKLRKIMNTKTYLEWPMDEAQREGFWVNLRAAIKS

IC50 (human TLR2 [1])	IC50 (human TLR2 [2])	Compound
8.3 µM	9.9 µM	COc1cc(-c2cnn(-c3cccc(Cl)c3)c2)cc(C=O)c1O [Compound A3, 5-(1-(3-chlorophenyl)-1H-pyrazol-4-yl)-2-hydroxy-3-methoxybenzaldehyde]
10.5 µM	8.5 µM	COc1cc(-c2cnn(Cc3ccccc3)c2)cc(C=O)c1O [Compound A4, 5-(1-benzyl-1H-pyrazol-4-yl)-2-hydroxy-3-methoxybenzaldehyde]
> 100 µM	> 100 µM	COc1cc(-c2cnn(C3CCOCC3)c2)cc(C=O)c1O [Compound A5, 2-hydroxy-3-methoxy-5-(1-(tetrahydro-2H-pyran-4-yl)-1H-pyrazol-4-yl)benzaldehyde]
12 µM	14.1 µM	COc1cc(-c2cnn(-c3ccc(F)cc3)c2)cc(C=O)c1O [Compound A6, 5-(1-(4-fluorophenyl)-1H-pyrazol-4-yl)-2-hydroxy-3-methoxybenzaldehyde]
5.1 µM	3.8 µM	COc1cc(-c2cnn(-c3cccc(C(F)(F)F)c3)c2)cc(C=O)c1O [Compound A9, 2-hydroxy-3-methoxy-5-(1-(3-(trifluoromethyl)phenyl)-1H-pyrazol-4-yl)benzaldehyde]
5.2 µM	5.2 µM	COc1ccc(Cn2cc(-c3cc(C=O)c(O)c(OC)c3)cn2)cc1 [Compound A10, 2-hydroxy-3-methoxy-5-(1-(4-methoxybenzyl)-1H-pyrazol-4-yl)benzaldehyde]
2 µM	2.3 µM	O=Cc1cc(-c2cnn(-c3ccccc3)c2)cc(F)c1O [Compound A11, 3-fluoro-2-hydroxy-5-(1-phenyl-1H-pyrazol-4-yl)benzaldehyde]
43.4 µM	52.6 µM	Cc1cc(-c2cnn(-c3ccccc3)c2)cc(Cl)c1O [Compound A17, 2-chloro-6-methyl-4-(1-phenyl-1H-pyrazol-4-yl)phenol]
> 100 µM	> 100 µM	Oc1c(F)cc(-c2cnn(-c3ccccc3)c2)cc1F [Compound A18, 2,6-difluoro-4-(1-phenyl-1H-pyrazol-4-yl)phenol]
0.2 µM	0.5 µM	O=Cc1cc(-c2cnn(-c3ccc(N4CCCCC4)cc3)c2)cc(F)c1O [Compound A20, 3-fluoro-2-hydroxy-5-(1-(4-(piperidin-1-yl)phenyl)-1H-pyrazol-4-yl)benzaldehyde]
1.1 µM	2.6 µM	O=Cc1cc(-c2cnn(-c3ccc(N4CCOCC4)cc3)c2)cc(F)c1O [Compound A21, 3-fluoro-2-hydroxy-5-(1-(4-morpholinophenyl)-1H-pyrazol-4-yl)benzaldehyde]
0.9 µM	0.8 µM	O=Cc1cc(-c2cnn(-c3cccc(N4CCCCC4)c3)c2)cc(F)c1O [Compound A23, 3-fluoro-2-hydroxy-5-(1-(3-(piperidin-1-yl)phenyl)-1H-pyrazol-4-yl)benzaldehyde]
5.4 µM	4.3 µM	O=Cc1cc(-c2cnn(-c3cccc(N4CCOCC4)c3)c2)cc(F)c1O [Compound A24, 3-fluoro-2-hydroxy-5-(1-(3-morpholinophenyl)-1H-pyrazol-4-yl)benzaldehyde]
0.8 µM	0.9 µM	O=Cc1cc(-c2ccn(-c3ccc(N4CCCCC4)cc3)n2)cc(F)c1O [Compound A28, 3-fluoro-2-hydroxy-5-(1-(4-(piperidin-1-yl)phenyl)-1H-pyrazol-3-yl)benzaldehyde]
7.6 µM	6.4 µM	O=Cc1cc(-c2ccn(-c3ccc(N4CCOCC4)cc3)n2)cc(F)c1O [Compound A29, 3-fluoro-2-hydroxy-5-(1-(4-morpholinophenyl)-1H-pyrazol-3-yl)benzaldehyde]
2.2 µM	2.1 µM	O=Cc1cc(-c2ccn(-c3cccc(N4CCCC4)c3)n2)cc(F)c1O [Compound A30, 3-fluoro-2-hydroxy-5-(1-(3-(pyrrolidin-1-yl)phenyl)-1H-pyrazol-3-yl)benzaldehyde]

IC50 (human TLR2 [1])	IC50 (human TLR2 [2])	Compound
6.2 µM	3.4 µM	O=Cc1cc(-c2ccn(-c3cccc(N4CCCCC4)c3)n2)cc(F)c1O [Compound A31, 3-fluoro-2-hydroxy-5-(1-(3-(piperidin-1-yl)phenyl)-1H-pyrazol-3-yl)benzaldehyde]
17.4 µM	12.7 µM	O=Cc1cc(-c2ccn(-c3cccc(N4CCOCC4)c3)n2)cc(F)c1O [Compound A32, 3-fluoro-2-hydroxy-5-(1-(3-morpholinophenyl)-1H-pyrazol-3-yl)benzaldehyde]
3.9 µM	6.9 µM	Oc1c(F)cc(-c2cnn(-c3ccc(N4CCCC4)cc3)c2)cc1C1OCCCO1 [Compound A34, 2-(1,3-dioxan-2-yl)-6-fluoro-4-(1-(4-(pyrrolidin-1-yl)phenyl)-1H-pyrazol-4-yl)phenol]
0.7 µM	1.6 µM	CN1CCN(/N=C/c2cc(-c3cnn(-c4ccc(N5CCCC5)cc4)c3)cc(F)c2O)CC1 [Compound A35, (E)-2-fluoro-6-(((4-methylpiperazin-1-yl)imino)methyl)-4-(1-(4-(pyrrolidin-1-yl)phenyl)-1H-pyrazol-4-yl)phenol]
> 100 µM	> 100 µM	Oc1c(F)cc(-c2cnn(-c3ccc(N4CCCC4)cc3)c2)cc1/C=N/N1CCN(C2CC2)CC1 [Compound A36, (E)-2-(((4-cyclopropylpiperazin-1-yl)imino)methyl)-6-fluoro-4-(1-(4-(pyrrolidin-1-yl)phenyl)-1H-pyrazol-4-yl)phenol]
> 100 µM	> 100 µM	Oc1c(F)cc(-c2cnn(-c3ccc(N4CCCC4)cc3)c2)cc1/C=N/N1CCOCC1 [Compound A37, (E)-2-fluoro-6-((morpholinoimino)methyl)-4-(1-(4-(pyrrolidin-1-yl)phenyl)-1H-pyrazol-4-yl)phenol]
0.4 µM	0.4 µM	CC(=O)N/N=C/c1cc(-c2cnn(-c3ccc(N4CCCC4)cc3)c2)cc(F)c1O [Compound A38, N′-(3-fluoro-2-hydroxy-5-(1-(4-(pyrrolidin-1-yl)phenyl)-1H-pyrazol-4-yl)benzylidene)acetohydrazide]
0.5 µM	0.5 µM	Oc1c(F)cc(-c2cnn(-c3ccc(N4CCCC4)cc3)c2)cc1/C=N/c1ccccc1 [Compound A39, (E)-2-fluoro-6-((phenylimino)methyl)-4-(1-(4-(pyrrolidin-1-yl)phenyl)-1H-pyrazol-4-yl)phenol]
2.7 µM	7.2 µM	Oc1c(F)cc(-c2cnn(-c3ccc(N4CCCC4)cc3)c2)cc1/C=N/Oc1ccccc1 [Compound A40, (E)-3-fluoro-2-hydroxy-5-(1-(4-(pyrrolidin-1-yl)phenyl)-1H-pyrazol-4-yl)benzaldehyde O-phenyl Oxime]
1.3 µM	1.3 µM	O=Cc1cc(-c2cn(-c3cccc(N4CCCC4)c3)nn2)cc(F)c1O [Compound A45, 3-fluoro-2-hydroxy-5-(1-(3-(pyrrolidin-1-yl)phenyl)-1H-1,2,3-triazol-4-yl)benzaldehyde]
0.9 µM	4.1 µM	O=Cc1cc(-c2ccc(-c3ccc(N4CCCC4)cc3)s2)cc(F)c1O [Compound A50, 3-fluoro-2-hydroxy-5-(5-(4-(pyrrolidin-1-yl)phenyl)thiophen-2-yl)benzaldehyde]
> 100 µM	> 100 µM	O=Cc1cc(-c2ncc(-c3ccccc3)o2)cc(F)c1O [Compound A89, 3-fluoro-2-hydroxy-5-(5-phenyloxazol-2-yl)benzaldehyde]
4.5 µM	6.5 µM	O=Cc1cc(-c2nc(-c3ccccc3)co2)cc(F)c1O [Compound A90, 3-fluoro-2-hydroxy-5-(4-phenyloxazol-2-yl)benzaldehyde]
0.9 µM	3.5 µM	O=Cc1cc(-c2csc(-c3ccc(Cl)cc3)n2)cc(F)c1O [Compound A92, 5-(2-(4-chlorophenyl)thiazol-4-yl)-3-fluoro-2-hydroxybenzaldehyde]
0.3 µM	0.9 µM	O=Cc1cc(-c2csc(-c3ccc(N4C[C@H]5CCC[C@H]5C4)cc3)n2)cc(F)c1O [Compound A97, 3-fluoro-5-(2-(4-((3aR,6aS)-hexahydrocyclopenta[c]pyrrol-2(1H)-yl)phenyl)thiazol-4-yl)-2-hydroxybenzaldehyde]
